Source: US20110230659A1, “CYCLOBUTYL PURINE DERIVATIVE, ANGIOGENESIS PROMOTING AGENT, LUMEN FORMATION PROMOTING AGENT, NEUROCYTE GROWTH PROMOTING AGENT, AND DRUG” (NATIONAL UNIVERSITY CORPORATION KAGAWA UNIVERSITY, priority 2008, published 2011)

Tests used:
[1] = test system: ERK; test: ERK activation (phosphorylation) immunoblot in HUVEC; type: cell-based, human; details: for relative value (−fold) of pERK: 100 μmol/l
Protocol: (§1) First, to a HuMedia-EB2 medium (Kurabo) to which 2 v/v % inactivated fetal bovine serum (FBS) had been added, 2-Cl—C.OXT-A was added so that its concentration became 100 μmol/l. Thus, a medium was prepared. Using the medium, human umbilical vein endothelial cells (HUVEC) were cultured for predetermined periods (0, 10, 20, 30, 45, and 60 minutes).
After the culture, cells were collected. The collected cells were lysed by adding a cell lysis buffer (SDS-lysis buffer) thereto, and heat-denatured at 95° C. for 5 minutes. The solubilized protein in an amount corresponding to 5 v/v % of the heat-denatured cell lysate was subjected to electrophoresis using 10% SDS-polyacrylamide gel, whereby the solubilized protein was transferred onto a nitrocellulose membrane (Amersham Biosciences). To 20 ml of TBS-T having the following composition, skim milk (Wako) was added so that its concentration became 5%, thus preparing a blocking solution. The resultant nitrocellulose membrane was immersed in the blocking solution and shaken at room temperature for 1 hour.
(§2) Primary antibodies shown below were diluted 1000-fold by adding them to 5% bovine serum albumin (Sigma)-containing TBS-T, thus preparing a primary antibody solution. The nitrocellulose membrane after being subjected to the blocking was immersed in the primary antibody solution, and shaken at room temperature for 1 hour. The resultant nitrocellulose membrane was immersed in the TBS-T and washed by being shaken for 10 minutes. This washing operation was carried out three times in total.
as §2, with “Secondary” for “Primary”, “20000-fold” for “1000-fold”, “to” for “to 5% bovine serum albumin (Sigma)-containing”, “secondary” for “primary”, “having undergone” for “after being subjected to”, “reaction with the primary antibodies” for “blocking”
(§3) The enzymes were visualized with SuperSignal (registered trademark) West Pico Chemiluminescent Substrate (Pierce), and detected by being exposed to RX—U X-ray film (FUJIFILM Corporation). From the detected bands, the respective phosphoenzymes and total enzymes were quantified using an NIH image software. Furthermore, the relative value (−fold) of each phosphoenzyme was calculated by substituting the measured value of the phosphoenzyme into the following equation (III).
Relative value(−fold)of phosphoenzyme=(B/D)/(A/C) (III)
In the present example, the effect of 2-Cl—C.OXT-A of Example 1 and C.OXT-G of Comparative Example 2 on the activation (phosphorylation) of ERK was examined. In the present example, the amount of each enzyme was measured and the relative value (−fold) of each phosphoenzyme was calculated in the same manner as in Example 3, except that: a medium to which 2-Cl—C.OXT-A had been added so as to achieve predetermined concentrations (0, 10 and 100 μmol/l) and a medium to which 100 μmol/l C.OXT-G had been added were used; the culture period after the addition was set to 20 minutes: as the primary antibodies, only an anti-phospho ERK polyclonal antibody (Catalog No. 9101, Cell Signaling Technology) and an anti-total ERK monoclonal antibody (Catalog No. 610408, BD Transduction Laboratory) were used; as the secondary antibody for ERK, a sheep HRP-labeled anti-mouse IgG antibody (Pierce) was used; and as a secondary antibody of pERK, a sheep HRP-labeled anti-rabbit IgG antibody (Pierce) was used.
In the present example, the effect of PD98059 as an MEK inhibitor on the ERK activation (phosphorylation) by 2-Cl—C.OXT-A used in Example 1 was examined. […]

[2] = test system: Akt; test: Akt activation (phosphorylation) immunoblot in HUVEC; type: cell-based, human; details: 100 μmol/l; 0 to 60 minutes
Protocol: as §1
(§4) After the culture, cells were collected. The collected cells were lysed by adding a cell lysis buffer (SDS-lysis buffer) thereto, and heat-denatured at 95° C. for 5 minutes. The solubilized protein in an amount corresponding to 5 v/v % of the heat-denatured cell lysate was subjected to electrophoresis using 10% SDS-polyacrylamide gel, whereby the solubilized protein was transferred onto a nitrocellulose membrane (Amersham Biosciences). […]
as §3

[3] = test system: ERK; test: ERK activation (phosphorylation) immunoblot in HUVEC; type: cell-based, human; details: Example 8, medium No. 11: 2-Cl—C.OXT-A 100 μmol/l
[4] = test system: Human umbilical vein endothelial cells (HUVEC); test: Measurement of cell migration (CytoSelect 24-well Cell Migration Assay); type: cell-based
Protocol: Measurement of cell migration was carried out in the following manner using CytoSelect 24-well Cell Migration Assay (CBA-100, Cell Biolabs) kits. First, sample solutions were prepared by dissolving 2-Cl—C.OXT-A in physiological saline so as to achieve predetermined concentrations (0.1, 0.5, 1 mmol/l). Then, the sample solutions containing 2-Cl—C.OXT-A at the predetermined concentrations respectively were added to HuMedia-EB2 media (Kurabo) to which 2 v/v % inactivated fetal bovine serum (FBS) had been added so that their concentrations became 10 v/v %. Thus, cell migration media were prepared. The final concentrations of 2-Cl—C.OXT-A in the cell migration media were 10, 50, and 100 μmol/l.
Human umbilical vein endothelial cells (HUVEC) were suspended in a HuMedia-EB2 medium (Kurabo) to which 2 v/v % inactivated fetal bovine serum (FBS) had been added at a density of 0.5×10^6 cells/ml. Thus, a cell suspension was prepared. 300 μl of the cell suspension was added to an upper compartment (i.e., in an insert) of a polycarbonate membrane plate provided in the kit, and 500 μl of the cell migration medium was added to a lower compartment (i.e., in a well) of the plate. Then, the cells were cultured at 37° C. for 24 hours. After the completion of the culture, the membrane on the inner bottom face of the insert was wiped out with a cotton swab to remove the cells on the membrane. Then, cells having migrated to the rear face of the membrane (the membrane on the outer bottom face of the insert) were stained using a staining solution provided in the kit, and then photographed from below the insert. After the photographing, the dye was extracted with an extracting solution provided in the kit, and the absorbance at 560 nm was measured using a microplate reader. As a control, a HuMedia-EB2 medium (Kurabo) to which 2 v/v % inactivated fetal bovine serum (FBS) had been added was used instead of the cell migration medium to carry out the culture, and the cells were stained and the absorbance was measured in the same manner as in the above. Then, using the above equation (I), the relative absorbance in the culture using each of the cell migration media containing 2-Cl—C.OXT-A at the predetermined concentrations was calculated.

[5] = test system: JNK; test: JNK activation (phosphorylation) immunoblot in HUVEC; type: cell-based, human; details: 100 μmol/l; 0 to 60 minutes
Protocol: as §1, §4, §3

Nc1nc(Cl)nc2c1ncn2C1CC(CO)C1CO (stereo not drawn) [2-Cl—C.OXT-A, 6-amino-2-chloro-9-[trans-trans-2,3-bis(hydroxymethyl)cyclobutyl]purine]
relative value (−fold) of pERK ([1]; Example 3, 20 minutes after the addition): about 11 fold | pERK, concentration dependence ([1]; Example 4, 0, 10 and 100 μmol/l, 20 minutes): increased in a manner dependent on the concentration | relative value (−fold) of pERK ([1]; Example 4, 20 minutes): about 10 fold | pERK ([1]; Example 6, medium No. 2: 2-Cl—C.OXT-A 100 μmol/l, no PD98059): increased | amount of pAkt [2]: not changed | pERK [3]: increased | stained area (cell migration photographs) ([4]; final concentration 10 μmol/l to 100 μmol/l, 24 hours, versus control): larger than that in the control | relative absorbance (cell migration) ([4]; final concentration 50 μmol/l): 2.1 | cell migration promoting-activity compared with VEGF ([4]; final concentration 50 μmol/l, VEGF 10 ng/ml): higher than that in Comparative Example 7 | relative absorbance (cell migration) ([4]; final concentration 10 to 100 μmol/l, versus control): higher than that of the control | migration promoting-activity compared with physiological saline ([4]; final concentrations 50 and 100 μmol/l, p<0.02): significantly higher than that in Comparative Example 8 | amount of pJNK [5]: not changed
